The target in one experiment is T1, Caspase-3 (Homo sapiens, UniProt P42574).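 Further: Dose-response selectivity test against caspase-3 for candidate inhibitors of sentrin-specific proteases (SENPs).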
T1 sequence (P42574 whole entry): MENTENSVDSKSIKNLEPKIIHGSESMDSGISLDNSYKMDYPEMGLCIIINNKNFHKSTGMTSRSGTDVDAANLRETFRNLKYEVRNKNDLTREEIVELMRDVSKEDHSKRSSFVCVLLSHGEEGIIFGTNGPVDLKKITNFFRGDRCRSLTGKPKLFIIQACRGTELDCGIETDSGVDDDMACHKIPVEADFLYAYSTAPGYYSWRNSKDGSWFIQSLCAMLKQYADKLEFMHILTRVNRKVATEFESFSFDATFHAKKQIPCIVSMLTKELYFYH
It is filed as functional.

Experiment [1] addresses T2, Sentrin-specific protease 7 (Homo sapiens, UniProt Q9BQF6).
T2 sequence (Q9BQF6 whole entry): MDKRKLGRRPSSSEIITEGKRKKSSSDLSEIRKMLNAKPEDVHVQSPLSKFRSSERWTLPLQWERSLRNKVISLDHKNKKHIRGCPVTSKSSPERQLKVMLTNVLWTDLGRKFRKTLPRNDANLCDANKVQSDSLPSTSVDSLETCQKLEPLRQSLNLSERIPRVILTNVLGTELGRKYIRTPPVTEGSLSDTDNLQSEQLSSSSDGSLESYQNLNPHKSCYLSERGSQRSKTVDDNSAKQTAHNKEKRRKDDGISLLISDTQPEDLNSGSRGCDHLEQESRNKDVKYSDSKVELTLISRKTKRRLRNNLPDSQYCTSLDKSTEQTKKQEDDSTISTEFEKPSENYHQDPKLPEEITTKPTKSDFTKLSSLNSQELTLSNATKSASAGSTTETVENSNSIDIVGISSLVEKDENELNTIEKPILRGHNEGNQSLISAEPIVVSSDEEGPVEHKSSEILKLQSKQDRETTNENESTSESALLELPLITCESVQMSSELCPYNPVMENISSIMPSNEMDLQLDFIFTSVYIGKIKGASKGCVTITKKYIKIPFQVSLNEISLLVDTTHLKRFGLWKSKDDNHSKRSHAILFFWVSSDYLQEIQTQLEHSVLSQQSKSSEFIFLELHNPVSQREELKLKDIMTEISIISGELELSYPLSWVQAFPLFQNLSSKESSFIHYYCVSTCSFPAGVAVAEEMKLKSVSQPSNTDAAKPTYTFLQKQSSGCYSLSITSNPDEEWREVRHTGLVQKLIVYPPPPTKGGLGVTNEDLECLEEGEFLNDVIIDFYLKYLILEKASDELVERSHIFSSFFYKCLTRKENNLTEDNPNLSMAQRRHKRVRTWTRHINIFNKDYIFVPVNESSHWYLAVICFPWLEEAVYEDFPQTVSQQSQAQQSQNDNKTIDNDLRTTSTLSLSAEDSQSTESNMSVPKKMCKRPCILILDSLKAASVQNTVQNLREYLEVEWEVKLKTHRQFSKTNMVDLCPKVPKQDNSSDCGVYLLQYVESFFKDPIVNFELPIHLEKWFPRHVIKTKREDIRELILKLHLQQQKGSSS
Type of experiment: functional.

For experiment [2], the target named is T3, Sentrin-specific protease 6 (Homo sapiens, UniProt Q9GZR1).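 Further: Luminescence-based dose-response confirmatory assay of SENP6 inhibition, following up an ultra-high-throughput screen.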
T3 sequence (Q9GZR1 whole entry): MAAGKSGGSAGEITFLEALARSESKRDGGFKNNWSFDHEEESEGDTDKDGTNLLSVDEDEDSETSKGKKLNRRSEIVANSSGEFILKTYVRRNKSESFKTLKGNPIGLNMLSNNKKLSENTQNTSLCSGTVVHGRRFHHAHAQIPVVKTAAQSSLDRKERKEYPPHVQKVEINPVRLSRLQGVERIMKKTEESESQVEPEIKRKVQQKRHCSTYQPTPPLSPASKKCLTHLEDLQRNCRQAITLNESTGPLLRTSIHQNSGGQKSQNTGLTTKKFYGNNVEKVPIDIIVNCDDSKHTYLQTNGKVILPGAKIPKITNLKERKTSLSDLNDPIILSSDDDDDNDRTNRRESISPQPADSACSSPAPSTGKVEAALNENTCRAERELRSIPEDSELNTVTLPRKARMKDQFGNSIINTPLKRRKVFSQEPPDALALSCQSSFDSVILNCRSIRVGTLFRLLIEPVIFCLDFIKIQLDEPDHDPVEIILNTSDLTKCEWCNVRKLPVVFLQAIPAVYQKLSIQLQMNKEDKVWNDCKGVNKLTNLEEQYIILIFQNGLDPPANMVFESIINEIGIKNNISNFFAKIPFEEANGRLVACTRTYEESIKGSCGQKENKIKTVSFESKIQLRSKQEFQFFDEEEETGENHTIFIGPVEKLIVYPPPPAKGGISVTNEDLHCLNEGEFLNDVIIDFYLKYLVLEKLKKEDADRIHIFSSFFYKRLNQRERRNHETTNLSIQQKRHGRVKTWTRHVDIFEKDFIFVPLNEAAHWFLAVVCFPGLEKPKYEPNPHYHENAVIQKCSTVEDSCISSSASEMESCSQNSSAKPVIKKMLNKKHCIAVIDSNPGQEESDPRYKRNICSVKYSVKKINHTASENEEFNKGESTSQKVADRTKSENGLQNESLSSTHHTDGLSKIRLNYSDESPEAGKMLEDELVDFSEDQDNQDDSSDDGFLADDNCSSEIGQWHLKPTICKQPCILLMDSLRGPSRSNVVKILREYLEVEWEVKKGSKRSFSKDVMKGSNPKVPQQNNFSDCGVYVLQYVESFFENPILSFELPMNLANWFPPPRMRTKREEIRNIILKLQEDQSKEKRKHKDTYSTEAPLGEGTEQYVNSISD
Type of experiment: functional.

In experiment [3] the target is T4, Sentrin-specific protease 8 (Homo sapiens, UniProt Q96LD8).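 Further: luminescence read-out of SENP8 inhibition, dose-response confirmation following an ultra-high-throughput screen.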
T4 sequence (Q96LD8 whole entry): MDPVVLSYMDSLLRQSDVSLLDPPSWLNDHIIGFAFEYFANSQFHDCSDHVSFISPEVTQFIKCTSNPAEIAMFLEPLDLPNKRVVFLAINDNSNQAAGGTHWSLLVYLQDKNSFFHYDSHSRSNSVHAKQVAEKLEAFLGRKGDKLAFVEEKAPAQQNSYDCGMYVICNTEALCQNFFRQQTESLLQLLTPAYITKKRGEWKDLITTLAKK
Type of experiment: functional.

Experiment [4] concerns the target T5, Oxysterols receptor LXR-beta (Homo sapiens, UniProt P55055).
T5 sequence (P55055 whole entry): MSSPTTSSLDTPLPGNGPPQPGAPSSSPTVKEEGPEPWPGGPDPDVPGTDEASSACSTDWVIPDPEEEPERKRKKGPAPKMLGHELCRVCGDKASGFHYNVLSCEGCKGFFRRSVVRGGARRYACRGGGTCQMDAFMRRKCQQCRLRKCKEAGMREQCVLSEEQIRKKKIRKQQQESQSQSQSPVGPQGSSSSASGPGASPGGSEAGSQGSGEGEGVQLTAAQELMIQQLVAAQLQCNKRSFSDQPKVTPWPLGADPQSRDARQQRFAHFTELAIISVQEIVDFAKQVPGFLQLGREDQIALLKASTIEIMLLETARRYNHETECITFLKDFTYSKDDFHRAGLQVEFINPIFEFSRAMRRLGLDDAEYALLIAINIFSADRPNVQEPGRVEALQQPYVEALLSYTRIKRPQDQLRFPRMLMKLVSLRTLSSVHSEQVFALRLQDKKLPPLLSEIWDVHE
Type of experiment: functional, cell-based.

Experiment [5] deals with NAD-dependent protein deacylase sirtuin-5, mitochondrial (Homo sapiens, UniProt Q9NXA8). The experiment in a line: SIRT5 desuccinylase inhibitors, dose response, biochemical, fluorescence imaging, cherry-pick, set 5 (AID 720591).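 Further: desuccinylation of succinyl peptide AMC substrate read as fluorescence after trypsin release; potency of inhibitors that lower fluorescence and may act on trypsin instead.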
Another experiment concerns HEK293. Nature of the experiment: cells. Type of experiment: functional, cell-based. Conditions: Homo sapiens.
The target of experiment [6] is T6, Nuclear receptor subfamily 0 group B member 1 (Homo sapiens, UniProt P51843).
T6 sequence (P51843 whole entry): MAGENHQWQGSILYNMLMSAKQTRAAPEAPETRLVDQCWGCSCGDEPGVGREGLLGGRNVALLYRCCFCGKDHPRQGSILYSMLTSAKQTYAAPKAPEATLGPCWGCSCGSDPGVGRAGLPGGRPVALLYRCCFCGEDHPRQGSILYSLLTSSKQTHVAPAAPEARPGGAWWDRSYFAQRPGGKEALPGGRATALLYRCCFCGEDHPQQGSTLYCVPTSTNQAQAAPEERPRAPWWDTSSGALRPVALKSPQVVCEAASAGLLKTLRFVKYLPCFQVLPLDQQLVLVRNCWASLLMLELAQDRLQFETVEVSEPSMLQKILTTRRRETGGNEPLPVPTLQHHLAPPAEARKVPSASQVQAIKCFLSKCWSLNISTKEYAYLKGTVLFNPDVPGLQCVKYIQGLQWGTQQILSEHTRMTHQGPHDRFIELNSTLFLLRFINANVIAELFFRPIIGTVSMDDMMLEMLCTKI
Nature of the experiment: Luminescence-based cell-based high throughput dose response assay for inhibitors of the orphan nuclear receptor subfamily 0, group B, member 1 (DAX1; NR0B1). [Related pubchem assays (depositor defined):AID504766, AID504790]. Type of experiment: functional.

The nature of experiment [7]: Luminescence-based cell-based high throughput dose response assay to identify activators of the DAF-12 from the parasite S. stercoralis (ssDAF-12). Type of experiment: functional.
The target in experiment [8] is T5, Oxysterols receptor LXR-beta. The experiment in a line: LXR agonists, Gal4 luciferase reporter, dose response, counter-screen for ssDAF-12 agonist project, cell-based, luminescence, HEK293, S. stercoralis campaign (AID 720737). It is filed as functional. To be noted: read-out: IC50 (the source's name).
Another experiment concerns the target T7, Protein Tat (Human immunodeficiency virus type 1 group M subtype B (isolate HXB2)(HIV-1), UniProt P04608).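 Further: tat binding to TAR RNA read out by fluorescence polarization.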
T7 sequence (P04608 whole entry): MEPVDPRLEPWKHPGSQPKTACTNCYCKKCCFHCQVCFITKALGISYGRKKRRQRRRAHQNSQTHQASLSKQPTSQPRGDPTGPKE
Type of experiment: functional.

The target of experiment [9] is T8, Rac GTPase-activating protein 1 (Homo sapiens, UniProt Q9H0H5).
T8 sequence (Q9H0H5 whole entry): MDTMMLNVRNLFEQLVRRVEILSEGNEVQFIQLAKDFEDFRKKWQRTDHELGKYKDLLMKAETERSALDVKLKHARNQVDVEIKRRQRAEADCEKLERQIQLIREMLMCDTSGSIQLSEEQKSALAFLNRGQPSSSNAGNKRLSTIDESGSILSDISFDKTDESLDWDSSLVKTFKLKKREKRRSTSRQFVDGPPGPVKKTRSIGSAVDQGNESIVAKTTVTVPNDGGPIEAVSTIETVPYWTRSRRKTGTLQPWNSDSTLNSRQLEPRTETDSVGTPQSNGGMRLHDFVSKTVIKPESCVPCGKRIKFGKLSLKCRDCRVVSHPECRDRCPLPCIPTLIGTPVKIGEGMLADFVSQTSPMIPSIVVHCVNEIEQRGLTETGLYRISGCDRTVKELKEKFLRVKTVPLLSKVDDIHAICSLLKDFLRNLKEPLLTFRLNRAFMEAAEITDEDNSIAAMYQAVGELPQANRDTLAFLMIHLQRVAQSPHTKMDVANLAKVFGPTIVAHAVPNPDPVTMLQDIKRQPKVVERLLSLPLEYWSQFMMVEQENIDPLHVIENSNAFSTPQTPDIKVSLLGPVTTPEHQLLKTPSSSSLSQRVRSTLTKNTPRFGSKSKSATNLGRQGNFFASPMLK
The experiment in a line: MgcRacGAP GTPase-activating activity inhibitors, confirmation, biochemical, ADP Hunter fluorescence, primary and confirmatory (AID 624330). It is filed as functional.

Experiment [10] in a line: LGR2 antagonists, dose response, cell-based, HEK293, CRE-luciferase reporter, cherry pick, set 2 (AID 743343).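 Further: transfected cells were stimulated with diluted bursicon conditioned medium after compound addition.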 Type of experiment: functional. (A reporter such as luciferase makes a cellular process visible.)
Experiment [11] can be described thus: MC4R antagonists, dose response, counter-screen for LGR2 antagonist project, cell-based, plate reader, cherry pick (AID 743444).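 Further: transfected HEK 293 cells stimulated with alpha-MSH peptide; potency of inhibitors of the alpha-MSH evoked signal.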 It is filed as functional.
Experiment [12] is described as follows: HEK293 cell cytotoxicity, dose response, cytotoxicity control, plate reader, cherry-picked samples (AID 743446). Type of experiment: functional, cell-based.
The nature of experiment [13]: P. falciparum Dd2 growth inhibitors, dose response, SYBR Green, cherry-picked samples (AID 1159567). It is filed as functional, cell-based.
The nature of experiment [14]: HepG2 cell cytotoxicity, dose response, cytotoxicity control, cherry-picked samples (AID 1159577). It is filed as functional, cell-based.

Calls of active or inactive are those of the source. Some results are limits rather than exact numbers.

Sequence of NAD-dependent protein deacylase sirtuin-5, mitochondrial (Q9NXA8 whole entry): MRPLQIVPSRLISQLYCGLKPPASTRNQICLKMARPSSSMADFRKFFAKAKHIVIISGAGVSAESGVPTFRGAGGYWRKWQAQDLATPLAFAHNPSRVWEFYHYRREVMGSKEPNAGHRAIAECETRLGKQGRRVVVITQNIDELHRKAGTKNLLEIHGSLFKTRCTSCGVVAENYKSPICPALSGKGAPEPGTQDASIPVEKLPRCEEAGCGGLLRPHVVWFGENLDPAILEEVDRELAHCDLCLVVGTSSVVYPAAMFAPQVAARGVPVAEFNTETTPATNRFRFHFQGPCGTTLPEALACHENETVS

In general, IC50 refers to the concentration that gives 50% inhibition. Take `CCOC(=O)c1c(C)[nH]c(N=Nc2cccc(OC)c2)c1C`: the half-inhibitory concentration (IC50) at Caspase-3 was 29.1 µM (active); in experiment [1] it was 3.75 µM (active); in [2] it was 11.7 µM (active); in [3], 17.3 µM (active). Further, in experiment [4], the EC50 is > 67.5 µM (inactive).

By AC50 is commonly meant the concentration at which the activity in the assay is half-maximal. Take `Cc1ccc(C)c(N2CCN(C(=O)c3cccn4c(=O)c5sccc5nc34)CC2)c1`: the half-maximal activity concentration (AC50) in experiment [5] was 26.9 µM (active).

For `COc1ccc(Cl)cc1C(=O)Nc1ccc2c(c1)OCCO2`, the IC50 (in the experiment on HEK293; in [6]; in experiment [7]) was > 67.5 µM (inactive) throughout. Besides, the EC50 in experiment [8] was > 67.5 µM (inactive).

`O=C(c1ccco1)N1CCN(C(c2ccccn2)c2nnnn2C2CCCC2)CC1` (stereo not given): the IC50 at Protein Tat is > 100 µM (active).

Regarding `Cc1cc(C(=O)NNC(=O)/C=C/c2ccco2)c(C)o1`, the half-inhibitory concentration (IC50) in experiment [9] is 125 µM (active); on Protein Tat, > 100 µM (active).

`O=C(COC(=O)c1nnc(O)c2ccccc12)Nc1ccccc1`: the AC50 in [5] is > 30 µM (inactive).

Take `Cc1cccc2sc(NC(=O)C3CC3)nc12`: in [5], the AC50 is > 30 µM (inactive).

For `Clc1cccc(N2Cc3cc(-c4ccccc4)ccc3-n3nncc3C2)c1`, the AC50 was 29.4 µM (active) in experiment [10], 34.1 µM (active) in experiment [11] and 20.7 µM (active) in experiment [12].

Turning to `COc1cccc(S(=O)(=O)N2CCCCN3[C@@H](CO)[C@@H](c4ccc(C5=CCCCC5)cc4)[C@@H]3C2)c1`, the AC50 in [13] is 1.62 µM (active); in [14], 10.8 µM (active).

The values above are taken from ChEMBL document CHEMBL1201862, “PubChem BioAssay data set” (2004).
